Results on eleven compounds are retold here after PubChem BioAssay (NCI).

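Interpolation was linear, between the two tested concentrations surrounding the appropriate level; five concentrations were tested over 48 hours in 96-well plates. TGI is the concentration that stops growth completely.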

For orientation: TGI means the concentration at which net growth stops. High values mean lower sensitivity of the cells, low ones greater sensitivity of the cells.

Some test systems named below: RXF 393 renal; COLO 205 colon; SK-MEL-2 melanoma; UACC-257 melanoma; HCC-2998 colon; SF-539 CNS; SNB-75 CNS; OVCAR-8 ovarian; 786-0 renal; MALME-3M melanoma.
What all share (test): DTP human tumour cell line panel, 48 h

As for `CC1CC2=C(S(=O)(=O)c3ccccc3)CC(S(=O)(=O)c3ccccc3)(S(=O)(=O)c3ccccc3)CC21` (centres undefined), the concentration for total growth inhibition (TGI) in the experiment with RXF 393 renal, with COLO 205 colon, in the experiment with SK-MEL-2 melanoma, with UACC-257 melanoma, with HCC-2998 colon and in the experiment on SF-539 CNS was more than 100 µM each time. Besides, the concentration for total growth inhibition (TGI) with SNB-75 CNS and in the experiment with OVCAR-8 ovarian was more than 100 µM each time.
Consider `CCOc1ncn(-c2ccc(NC(=S)NC3OC(CO)C(O)C(O)C3O)cc2)n1` (centres undefined), for which the TGI with COLO 205 colon, in the experiment with UACC-257 melanoma, with HCC-2998 colon, with 786-0 renal, in the experiment with SF-539 CNS and with SNB-75 CNS was more than 100 µM each time. The same compound returned a total growth inhibition concentration (TGI) in the experiment on OVCAR-8 ovarian of more than 100 µM.
As to `C=C(C)[C@H]1Cc2c(ccc3c2O[C@@H]2COc4cc(OC)c(OC)cc4[C@@H]2C3=O)O1`, the total growth inhibition concentration (TGI) in the experiment on RXF 393 renal is 6.41 µM; in the experiment on MALME-3M melanoma it was 48 µM; with COLO 205 colon it was 0.539 µM; in the experiment on SK-MEL-2 melanoma it was 25.3 µM; in the experiment on UACC-257 melanoma, 36.7 µM; with HCC-2998 colon, 8.12 µM. Besides, the TGI in the experiment on 786-0 renal is more than 86.2 µM; with SF-539 CNS, 3.36 µM; in the experiment with SNB-75 CNS it was 60.5 µM; in the experiment with OVCAR-8 ovarian it was 10.1 µM.
As for `O=c1cc(-c2ccc(Oc3ccccc3)cc2)[nH]c2cc3c(cc12)OCO3`, the TGI with RXF 393 renal, in the experiment on MALME-3M melanoma, with COLO 205 colon, in the experiment on SK-MEL-2 melanoma, in the experiment on UACC-257 melanoma and in the experiment with HCC-2998 colon was more than 100 µM throughout. Also, the TGI in the experiment with 786-0 renal, in the experiment with SF-539 CNS, with SNB-75 CNS and in the experiment on OVCAR-8 ovarian was more than 100 µM throughout.
Turning to `COc1ccc(S(=O)(=O)c2ccccc2[N+](=O)[O-])cc1`, the total growth inhibition concentration (TGI) with RXF 393 renal, in the experiment on MALME-3M melanoma, in the experiment on COLO 205 colon, in the experiment on SK-MEL-2 melanoma, in the experiment on UACC-257 melanoma and with HCC-2998 colon was more than 100 µM each time. The TGI in the experiment on SF-539 CNS, in the experiment with SNB-75 CNS and in the experiment with OVCAR-8 ovarian was more than 100 µM in each case.
As for `Nc1nc([O-])c2c(n1)[n+](C1OC(CO)C(O)C1O)cn2CCO` (centres undefined), the TGI in the experiment on RXF 393 renal, with MALME-3M melanoma, in the experiment with COLO 205 colon, in the experiment with SK-MEL-2 melanoma, in the experiment on UACC-257 melanoma and in the experiment with 786-0 renal was more than 100 µM each time. For the same compound, the TGI in the experiment on SF-539 CNS, with SNB-75 CNS and with OVCAR-8 ovarian was more than 100 µM each time.
Consider `CN=C(SC)N(C)c1nc(=[N+](C)C)ss1`, for which the TGI in the experiment on RXF 393 renal, in the experiment on SK-MEL-2 melanoma, with UACC-257 melanoma, in the experiment on HCC-2998 colon, in the experiment on 786-0 renal and with SNB-75 CNS was more than 100 µM in each case. Besides, the TGI with OVCAR-8 ovarian was more than 100 µM.
As for `CN(C)CC1CCCC(CN(C)C)C1OC(=O)c1ccccc1` (centres undefined), the total growth inhibition concentration (TGI) in the experiment on RXF 393 renal, in the experiment with MALME-3M melanoma, with COLO 205 colon, in the experiment on SK-MEL-2 melanoma, with UACC-257 melanoma and with HCC-2998 colon was more than 100 µM each time. Besides, the total growth inhibition concentration (TGI) with 786-0 renal, in the experiment on SF-539 CNS, with SNB-75 CNS and in the experiment with OVCAR-8 ovarian was more than 100 µM each time.
As for `C[Si](C)(C)OC1CC(=O)OC1n1cc(F)c(=O)[nH]c1=O` (centres undefined), the TGI in the experiment on RXF 393 renal was 98.4 µM; with MALME-3M melanoma, more than 100 µM; in the experiment with COLO 205 colon it was more than 100 µM; in the experiment with SK-MEL-2 melanoma it was more than 100 µM; with UACC-257 melanoma it was more than 100 µM; in the experiment with HCC-2998 colon, more than 100 µM. Further, the TGI with 786-0 renal, in the experiment on SF-539 CNS, in the experiment on SNB-75 CNS and with OVCAR-8 ovarian was more than 100 µM throughout.
On to `CCN(CC)C1CC(O[C@H]2C[C@](O)(C(=O)CO)Cc3c(O)c4c(c(O)c32)C(=O)c2c(OC)cccc2C4=O)OC(C)C1O` (some centres undefined), for which the total growth inhibition concentration (TGI) worked out at 0.123 µM with RXF 393 renal; 0.166 µM in the experiment on MALME-3M melanoma; 0.193 µM in the experiment with COLO 205 colon; 0.193 µM in the experiment on SK-MEL-2 melanoma; 0.305 µM in the experiment on UACC-257 melanoma; 0.29 µM with HCC-2998 colon. Moreover, the TGI with 786-0 renal amounted to 0.541 µM; in the experiment with SF-539 CNS, 0.204 µM; in the experiment on SNB-75 CNS, 0.184 µM; in the experiment on OVCAR-8 ovarian, 0.565 µM.
On to `CC1=CCC(O)C=CC(C)C(O)C(C)C=C(C)C(=O)c2c(O)c(C)cc3c2C(=O)C(N)=C(NC(=O)/C=C\C=C/C=CC(C)C(O)CC1=O)C3=O` (centres undefined), for which the concentration for total growth inhibition (TGI) with MALME-3M melanoma was 82.7 µM; in the experiment with COLO 205 colon, more than 100 µM; with SK-MEL-2 melanoma it was more than 100 µM; with UACC-257 melanoma, more than 100 µM; in the experiment on HCC-2998 colon, more than 100 µM; with 786-0 renal, more than 100 µM. Moreover, the TGI in the experiment on SF-539 CNS, with SNB-75 CNS and in the experiment with OVCAR-8 ovarian was more than 100 µM throughout.
